Data reported in patent US5488049A, “Method of treating learning and memory disorders using benzothiadiazide derivatives as nootropic agents” (FIDIA - Georgetown Institute for the Neuro-Sciences, priority 1993, dated 1996).

What was measured:
Assay type in all cases: cell-based, rat
[1] = tested on: kainate-activated current; experiment: Selectivity: ionic current elicited by 20 μM kainate
Protocol: (§1) Young rats (12-16 days old) were decapitated and the brains quickly removed and placed in ice-cold Ringer solution. Thin slices of hippocampus (250 μm) were then cut with a vibratome slicer (Lancer, St. Louis, Mo.) and kept in Ringer solution at 37° C. until use. The experiments were carried out at room temperature with the slice totally submerged in a 1 ml volume recording chamber and under continuous perfusion with Ringer solution at a rate of 6 ml/min using an upright Hoffman modulation contrast microscope (Carl Zeiss, Germany) equipped with a 40×water immersion objective.
(§2) Media and drug application. The external Ringer solution contained (in mM): NaCl 120; KCl 3.1; CaCl2 2; MgCl2 1; KH2 PO4 1; NaHCO3 26; glucose 2.7; and it was continuously bubbled with 95% O2 and 5% CO2. Patch pipettes were filled with a solution containing (in mM): K-gluconate 140; MgCl2 1; ATP.Mg 2; EGTA 0.5; HEPES-KOH 10, pH 7.2. All the drugs under investigation were applied through the recording chamber perfusion system via parallel inputs having a common entry into the chamber. Agonist application was attained using two different systems that allowed a slow or a rapid solution change. Slow solution changes were used during recordings in whole-cell configuration and were obtained by exchanging the solution of the recording chamber within a few seconds. Fast solution changes were obtained with the use of the Y-shaped tubing method that allows complete exchange of solution in less than 10 ms, and is described in detail by Murase et al. (1989).
(§3) Ionic currents in whole-cell configuration and outside-out excised membrane patches were monitored using the patch clamp technique (15).

[2] = tested on: AMPA receptors located on CAl pyramidal neuronal membranes; experiment: Slow bath perfusion, whole-cell: potentiation of glutamate-elicited current (with MK-801) in CAl pyramidal neurons of hippocampal slices
Protocol: as §1, §2
IDRA compounds (see above for structures) were first dissolved in 50 μl of DMSO, then […] of 1N NaOH and water (sufficient to reach a volume of 1 ml and a concentration of 10 mM). The final concentration was reached diluting the stock solution with Ringer solution.
as §3
The action diazoxide and the IDRA analogues were tested on the desensitization of AMPA receptors located on CAl pyramidal neuronal membranes in rat hippocampal slices. In order to evaluate whether the compounds under study increase the intensity of currents generated by the activation of non-NMDA receptors, these receptors were activated with glutamate in the presence of 5 μM MK-801 to block completely the ionic current elicited by glutamate acting on the NMDA receptor channels present in CAl pyramidal neurons. Three distinct methods of drug application were employed: 1) slow bath perfusion of agonist and drugs while recording in whole-cell mode (onset 30s); ii) fast application to outside-out patches of a fixed concentration of agonist with a double barrel pipette (onset<1 ms) in the presence and the absence of drugs; iii) fast perfusion (onset<6 ms) of increasing concentrations of agonist and drugs applied with the Y-tubing device to outside-out patches excised from neurons in brain slices and to voltage-clamped neurons in primary culture.
. The most efficacious (1 mM) derivative was IDRA21, which elicited a potentiation of 797±220% (n=4 cells), followed by IDRA 20 with a potentiation of 292±100% (n=4 cells) (FIG. 2). […]

AMPA receptor [3] = experiment: Fast application with Y-tubing: dose-response on desensitization of glutamate current in outside-out patches from CAl pyramidal neurons; settings: increasing doses, 5 μM MK-801
Excerpt: as §2, with “Fast solution changes were obtained with the use of the Y-shaped tubing method that allows complete exchange of solution in less than 10 ms, and is described in detail by Murase et al. (1989).” left out
Briefly, a polyethylene tubing (1 mm i.d.) is bent in a U-shaped, and another fine polyethylene tubing (50 μi.d.) and 10 mm length) is inserted into a small hole in the U-tubing making the tip of the Y-tubing. […] The agonist was applied for a period of 150 ms and the time necessary for a complete exchange of the solution was less than 1 ms as measured at the opening of a patch pipette containing different dilutions of the drugs under study. […]
Dose-response studies were performed with the Y-tubing system, and analyzed with sigmoid interpolation (Graphpad Academic Press). […]

[4] = tested on: EPSCs elicited in CAl pyramidal neurons; experiment: Excitatory postsynaptic currents (EPSCs) in CAl pyramidal neurons in hippocampal slices on stimulation of Schaffer collateral afferents
Protocol: as §1, §3
Traces were filtered at 3 KHz (-3 dB, 8-pole, lowpass Bessel filter, Frequency Devices), and stored in an LSI 11/73 computer (INDEC System, Sunnyvale, Calif.) after digitization (10 KHz) with a Data Translation analog to digital converter. Decay time constants of EPSC and glutamate-activated currents were determined from exponential fitting with the 11/73 system by using an entirely automated least-squares procedures (see Vicini and Schuetze, 1985, for further details). This method uses a Simplex algorithm (Caceci and Cacheris, 1984) to fit the data to either a single or double exponential equation of the form I(t)=If exp(-t/tauf)+Is exp(-t/taus), where If and Is are the amplitudes of the sIPSC fast and slow components, and tauf and taus are their respective decay time constants. Peak amplitudes were measured at the absolute maximum of the currents, taking into account the noise of the baseline and noise around the peak. Rise times were measured as the time elapsed from 20 to 80% of the peak amplitude of the response.
The action of nootropic drugs on the excitatory postsynaptic currents (EPSCs) elicited in CAl pyramidal neurons in hippocampal slices was investigated by stimulation of the Schaffer collateral afferents.

AMPA receptor [5] = experiment: Fast application with double barrel pipette: AMPA receptor desensitization in outside-out patches from CAl hippocampal pyramidal neurons
Protocol: as §1, §2
Briefly, a polyethylene tubing (1 mm i.d.) is bent in a U-shaped, and another fine polyethylene tubing (50 μi.d.) and 10 mm length) is inserted into a small hole in the U-tubing making the tip of the Y-tubing. Solutions are fed to the Y-tubing by gravity, and negative pressure facilitates exchange of the solution. The tip of the Y-tubing is positioned 100 μm from the cell investigated, and upon opening and closing of a valve that controls the negative pressure, it was possible to respectively change rapidly and apply a number of different test solutions. This method was used to apply agonists to excised outside-out membrane patches. More rapid drug applications were used to apply agonists to excised outside-out membrane patches, and were obtained through a double-barrelled pipette positioned close to the recording pipette containing the membrane patch. […] The agonist was applied for a period of 150 ms and the time necessary for a complete exchange of the solution was less than 1 ms as measured at the opening of a patch pipette containing different dilutions of the drugs under study. […]
Ionic currents in whole-cell configuration and outside-out excised membrane patches were monitored using the patch clamp technique (15). […]

## CC1Nc2ccc(Cl)cc2S(=O)(=O)N1 (racemic) [IDRA 21, 7-chloro-3-methyl-3,4-dihydro-2H 1,2,4-benzothiadiazine S-S dioxide]
[1]; 1 mM compound, 20 μM kainate
  effect on kainate-activated current: failed to potentiate the kainate-activated current
[1]; all doses that decrease/inhibit AMPA desensitization
  effect on kainate responses at doses that decreased AMPA desensitization: failed to affect kainate responses
[2]; 10 μM compound, mean±SE, N=4 cells
  potentiation of glutamate-elicited current: 65±6.9%
[2]; 100 μM compound, mean±SE, N=4 cells
  potentiation of glutamate-elicited current: 109±30%
[2]; 1 mM
  efficacy relative to diazoxide (potentiation of glutamate current): 4 fold
[2]; 1 mM compound, 50 μM glutamate, 5 μM MK-801, whole-cell, slow perfusion
  potentiation of glutamate-elicited current: 797±200%
[2]; 1 mM compound, 50 μM glutamate, 5 μM MK-801, whole-cell, slow perfusion, listed as IDRA21
  potentiation of glutamate-elicited current: 797±220%
[2]; 1 mM, maximal dose testable without vehicle effect
  maximal efficacy reached, in words: failed to reach maximal efficacy at 1 mM
[2]; up to 1 mM
  potentiation of glutamate current, dose dependence: dose-dependent potentiation
AMPA receptor [3]
  desensitization of current activated by 100 μM glutamate: decreased by increasing doses
[4]; Rattus norvegicus, Pyramidal neuron, read-out: efficacy in increasing delay time of AMPA current (EPSC) relative to diazoxide
  Emax at 1000 µM: 300%
[4]; Rattus norvegicus, Pyramidal neuron, read-out: response relative to diazoxide (electrophysiology summary)
  Emax: 300%
[4]; summary statement
  response relative to aniracetam (electrophysiology summary): one order of magnitude larger than that of aniracetam
AMPA receptor [5]; 1 mM IDRA 21, double barrel, outside-out patches, 4 of 5 patches
  removal of glutamate-induced desensitization: completely removed the desensitization induced by glutamate in 4 of 5 patches tested
AMPA receptor [5]; summary statement
  desensitization of AMPA/Kainate receptors (summary): reduction in the desensitization of AMPA/Kainate receptors
